# Experimental data as given in patent US6737383B1, “Herbicidal oxadiazolidines” (priority 1999, dated 2004).
# Tests used:
# bedstraw = assay: Test B pre/postemergence bedstraw; type: in vivo, Galium aparine
# Method in brief: (§1)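 Test chemicals in a non-phytotoxic solvent mixture with surfactant were sprayed preemergence onto planted seeds and postemergence onto plants 2 to 18 cm tall (1- to 4-leaf stage). After twelve to sixteen days in a greenhouse, injury was visually rated against untreated controls from 0 (no effect) to 10 (complete control).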
# blackgrass = assay: Test B pre/postemergence blackgrass; type: in vivo, Alopecurus myosuroides
# Method in brief: as §1
# surinam grass = assay: Test B pre/postemergence surinam grass; type: in vivo, Brachiaria decumbens
# Method in brief: as §1
# cocklebur = assay: Test B pre/postemergence cocklebur; type: in vivo, Xanthium strumarium
# Method in brief: as §1
# corn = assay: Test B pre/postemergence corn; type: in vivo, Zea mays
# Method in brief: as §1
# crabgrass = assay: Test B pre/postemergence crabgrass; type: in vivo, Digitaria sanguinalis
# Method in brief: as §1
# giant foxtail = assay: Test B pre/postemergence giant foxtail; type: in vivo, Setaria faberii
# Method in brief: as §1
# rape = assay: Test B pre/postemergence rape; type: in vivo, Brassica napus
# Method in brief: as §1
# soybean = assay: Test B pre/postemergence soybean; type: in vivo, Glycine max
# Method in brief: as §1
# sugar beet = assay: Test B pre/postemergence sugar beet; type: in vivo, Beta vulgaris
# Method in brief: as §1
# velvetleaf = assay: Test B pre/postemergence velvetleaf; type: in vivo, Abutilon theophrasti
# Method in brief: as §1
# wheat = assay: Test B pre/postemergence wheat; type: in vivo, Triticum aestivum
# Method in brief: as §1
# purple nutsedge = assay: Test B pre/postemergence purple nutsedge; type: in vivo, Cyperus rotundus
# Method in brief: as §1
# rice = assay: Test B flood test rice; type: in vivo, Oryza sativa
# Method in brief: (§2)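 Read-out is a visual response score from 0 (no effect) to 10 (complete control), assigned by comparison with untreated controls. Treatment was applied at the 2-leaf stage, and plants stayed in the greenhouse for twelve to sixteen days before scoring.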
# smallflower flatsedge = assay: Test B flood test smallflower flatsedge; type: in vivo, Cyperus difformis
# Method in brief: as §2
# duck salad = assay: Test B flood test duck salad; type: in vivo, Heteranthera limosa
# Method in brief: as §2
# bamyardgrass = assay: Test B flood test barnyardgrass; type: in vivo, Echinochloa crus-galli
# Method in brief: as §2
# [1] = Preemergence, Rate 62 g/ha, scale of 0 to 10 where 0 is no effect and 10 is complete control
# [2] = Preemergence, Rate 250 g/ha, scale of 0 to 10 where 0 is no effect and 10 is complete control
# [3] = Preemergence, Rate 500 g/ha, scale of 0 to 10 where 0 is no effect and 10 is complete control
# [4] = Rate 62 g/ha, Postemergence, scale 0 to 10 (0 no effect, 10 complete control)
# [5] = Rate 125 g/ha, Postemergence, scale of 0 to 10 where 0 is no effect and 10 is complete control
# [6] = Rate 125 g/ha, Preemergence, scale of 0 to 10 where 0 is no effect and 10 is complete control
# [7] = Rate 250 g/ha, Postemergence, scale of 0 to 10 where 0 is no effect and 10 is complete control
# [8] = Rate 500 g/ha, Postemergence, scale 0 to 10, 0 no effect, 10 complete control
# [9] = Rate 62 g/ha, headed Pre-emergence (flood test species), scale 0 to 10 (0 no effect, 10 complete control)
# [10] = Rate 125 g/ha, Pre-emergence, flood test species, scale 0 to 10 where 0 is no effect and 10 is complete control
# [11] = Rate 250 g/ha, Pre-emergence, flood-test species, scale 0 to 10, 0 is no effect, 10 is complete control
# [12] = Rate 500 g/ha, Pre-emergence, flood test species, scale 0 to 10 (0 no effect, 10 complete control)
structure (smiles),measurement,setting,value
CC(C)N(C(=O)n1oc(=O)n(C2CCCC2)c1=O)c1ccccc1 [Compound 283],Bedstraw plant response rating,bedstraw; [1],0
same,Bedstraw plant response rating,bedstraw; [2],1
same,"Plant response rating, Bedstraw",bedstraw; [3],9
same,Bedstraw plant response rating,bedstraw; [4],0
same,Bedstraw plant response rating,bedstraw; [5],1
same,Bedstraw plant response rating,bedstraw; [6],0
same,"Plant response rating, Bedstraw",bedstraw; [7],5
same,Bedstraw plant response rating,bedstraw; [8],6
same,Blackgrass plant response rating,blackgrass; [1],7
same,Blackgrass plant response rating,blackgrass; [2],9
same,"Plant response rating, Blackgrass",blackgrass; [3],10
same,Blackgrass plant response rating,blackgrass; [4],2
same,Blackgrass plant response rating,blackgrass; [5],6
same,Blackgrass plant response rating,blackgrass; [6],8
same,"Plant response rating, Blackgrass",blackgrass; [7],7
same,Blackgrass plant response rating,blackgrass; [8],7
same,B. signalgrass plant response rating,surinam grass; [1],6
same,B. signalgrass plant response rating,surinam grass; [2],10
same,"Plant response rating, B. signalgrass",surinam grass; [3],10
same,B. signalgrass plant response rating,surinam grass; [4],0
same,B. signalgrass plant response rating,surinam grass; [5],0
same,B. signalgrass plant response rating,surinam grass; [6],10
same,"Plant response rating, B. signalgrass",surinam grass; [7],0
same,B. signalgrass plant response rating,surinam grass; [8],2
same,Cocklebur plant response rating,cocklebur; [1],0
same,Cocklebur plant response rating,cocklebur; [2],0
same,"Plant response rating, Cocklebur",cocklebur; [3],0
same,Cocklebur plant response rating,cocklebur; [4],2
same,Cocklebur plant response rating,cocklebur; [5],2
same,Cocklebur plant response rating,cocklebur; [6],0
same,"Plant response rating, Cocklebur",cocklebur; [7],2
same,Cocklebur plant response rating,cocklebur; [8],2
same,Corn plant response rating,corn; [1],0
same,Corn plant response rating,corn; [2],0
same,"Plant response rating, Corn",corn; [3],0
same,Corn plant response rating,corn; [4],0
same,Corn plant response rating,corn; [5],0
same,Corn plant response rating,corn; [6],0
same,"Plant response rating, Corn",corn; [7],0
same,Corn plant response rating,corn; [8],0
same,Crabgrass plant response rating,crabgrass; [1],2
same,"Plant response rating, Crabgrass",crabgrass; [3],7
same,Crabgrass plant response rating,crabgrass; [4],0
same,Crabgrass plant response rating,crabgrass; [5],0
same,Crabgrass plant response rating,crabgrass; [6],7
same,"Plant response rating, Crabgrass",crabgrass; [7],1
same,Crabgrass plant response rating,crabgrass; [8],1
same,Giant foxtail plant response rating,giant foxtail; [1],8
same,Giant foxtail plant response rating,giant foxtail; [2],10
same,"Plant response rating, Giant foxtail",giant foxtail; [3],10
same,Giant foxtail plant response rating,giant foxtail; [4],0
same,Giant foxtail plant response rating,giant foxtail; [5],3
same,Giant foxtail plant response rating,giant foxtail; [6],9
same,"Plant response rating, Giant foxtail",giant foxtail; [7],4
same,Giant foxtail plant response rating,giant foxtail; [8],7
same,Rape plant response rating,rape; [1],0
same,Rape plant response rating,rape; [2],2
same,"Plant response rating, Rape",rape; [3],8
same,Rape plant response rating,rape; [4],2
same,Rape plant response rating,rape; [5],3
same,"Plant response rating, Rape",rape; [7],4
same,Rape plant response rating,rape; [8],7
same,Soybean plant response rating,soybean; [1],0
same,Soybean plant response rating,soybean; [2],0
same,"Plant response rating, Soybean",soybean; [3],0
same,Soybean plant response rating,soybean; [4],4
same,Soybean plant response rating,soybean; [5],4
same,Soybean plant response rating,soybean; [6],0
same,"Plant response rating, Soybean",soybean; [7],5
same,Soybean plant response rating,soybean; [8],7
same,Sugarbeets plant response rating,sugar beet; [1],0
same,Sugarbeets plant response rating,sugar beet; [2],2
same,"Plant response rating, Sugarbeets",sugar beet; [3],5
same,Sugarbeets plant response rating,sugar beet; [4],0
same,Sugarbeets plant response rating,sugar beet; [5],2
same,Sugarbeets plant response rating,sugar beet; [6],0
same,"Plant response rating, Sugarbeets",sugar beet; [7],2
same,Sugarbeets plant response rating,sugar beet; [8],2
same,Velvetleaf plant response rating,velvetleaf; [1],0
same,Velvetleaf plant response rating,velvetleaf; [2],5
same,"Plant response rating, Velvetleaf",velvetleaf; [3],7
same,Velvetleaf plant response rating,velvetleaf; [4],0
same,Velvetleaf plant response rating,velvetleaf; [5],0
same,Velvetleaf plant response rating,velvetleaf; [6],2
same,"Plant response rating, Velvetleaf",velvetleaf; [7],1
same,Velvetleaf plant response rating,velvetleaf; [8],3
same,Wheat plant response rating,wheat; [1],0
same,Wheat plant response rating,wheat; [2],1
same,"Plant response rating, Wheat",wheat; [3],6
same,Wheat plant response rating,wheat; [4],0
same,Wheat plant response rating,wheat; [5],0
same,Wheat plant response rating,wheat; [6],0
same,"Plant response rating, Wheat",wheat; [7],0
same,Wheat plant response rating,wheat; [8],0
same,Nutsedge plant response rating,purple nutsedge; [1],0
same,Nutsedge plant response rating,purple nutsedge; [2],0
same,"Plant response rating, Nutsedge",purple nutsedge; [3],0
same,Nutsedge plant response rating,purple nutsedge; [4],0
same,Nutsedge plant response rating,purple nutsedge; [5],0
same,Nutsedge plant response rating,purple nutsedge; [6],0
same,"Plant response rating, Nutsedge",purple nutsedge; [7],0
same,Nutsedge plant response rating,purple nutsedge; [8],0
same,Rice plant response rating,rice; [9],0
same,Rice plant response rating,rice; [10],0
same,Rice plant response rating,rice; [11],0
same,Rice plant response rating,rice; [12],1
same,S. Flatsedge plant response rating,smallflower flatsedge; [9],0
same,S. Flatsedge plant response rating,smallflower flatsedge; [10],0
same,S. Flatsedge plant response rating,smallflower flatsedge; [11],0
same,S. Flatsedge plant response rating,smallflower flatsedge; [12],5
same,Ducksalad plant response rating,duck salad; [9],0
same,Ducksalad plant response rating,duck salad; [10],0
same,Ducksalad plant response rating,duck salad; [11],0
same,Ducksalad plant response rating,duck salad; [12],0
same,Barnyardgrass plant response rating,bamyardgrass; [9],0
same,Barnyardgrass plant response rating,bamyardgrass; [10],3
same,Barnyardgrass plant response rating,bamyardgrass; [11],6
same,Barnyardgrass plant response rating,bamyardgrass; [12],6
